From US5464617A, “β-lactam compounds” (Hoffmann-La Roche Inc., priority 1994, dated 1995)
Structures can show the parent of a compound that is named as a salt. Where two headings read alike, the source gives them in different places.

Columns and labels:
[1] = system: Citrobacter freundii 1982; assay: MIC in vitro of a 1:4 combination of ceftriaxone with a compound of formula I (Test D); type: cell-based; details: Table 2; ceftriaxone alone (control)
[2] = system: Citrobacter freundii 1982; assay: as above; type: cell-based; details: 1:4 combination of ceftriaxone with the compound; for MIC C. freundii 1982 (D): Table 4, test D
Description: The minimum inhibitory concentration in vitro ([…]) of a 1:4 combination of ceftriaxone with a compound of formula I against Citrobacter freundii 1982 was measured and compiled in Table 2 hereinafter.

E. coli 1346 = assay: Antibacterial activity of the products per se, serial dilution method in liquid medium (Test E); type: cell-based; details: Table 4; test E, product per se
Excerpt: The antibacterial activity of the products per se is illustrated on the basis of Table 3 hereinafter, the minimum inhibitory concentration […] in vitro against E. coli 1346 being determined using the serial dilution method in liquid medium: […]

β-lactamase = β-lactamase (Citrobacter freundii, UniProt P05193); assay: Determination of the β-lactamase inhibiting activity (Test C): inhibition of nitrocefin cleavage by isolated β-lactamase; type: biochemical, Citrobacter freundii 1982; details: pH 7.0, 37° C.
Description: Various β-lactamases can be isolated from penicillin- or cephalosporin-resistant bacterial strains such as Klebsiella pneumoniae NCTC 418, Proteus vulgaris 1028, Bacillus licheniformis 749/C, Escherichia coli SNO1, Pseudomonas aeruginosa 18SH and Citrobacter freundii 1203. For this purpose, the corresponding strains are cultivated in Tryptic Soy Broth (Difco) and harvested by centrifugation in the last logarithmic growth phase (when necessary 50-100 mg/l of ampicillin are added to the medium towards the end of the log-phase in order to induce the β-lactamase). The thus-obtained bacterial mass is treated with 20 mM Tris-HCl buffer (pH 7.0); the cells are broken open with a French press while cooling. The mixture is centrifuged (20,000 r/min.) for 20-30 minutes and a clear crude extract is obtained. The purification of the proteins is effected according to the method of Cartwright, S. J. & Waley, S. G. [Biochem. J. 221, 505-512 (1980)] and, for B. lichenformis, Ellerby, L. M. et al. [Biochemistry 29, 5797-5806 (1990)].
The determination of the activity of the isolated β-lactamases can be carried out according to the method of O'Callaghan, C. H. et al. [Antimicr. Ag. Chemother. […] The cleavage of the substrate, which is accompanied by a change in colour, is effected at 37° C. and is followed quantitatively at 482 nm using a spectral photometer. […]

Chain of β-lactamase (P05193 21-381): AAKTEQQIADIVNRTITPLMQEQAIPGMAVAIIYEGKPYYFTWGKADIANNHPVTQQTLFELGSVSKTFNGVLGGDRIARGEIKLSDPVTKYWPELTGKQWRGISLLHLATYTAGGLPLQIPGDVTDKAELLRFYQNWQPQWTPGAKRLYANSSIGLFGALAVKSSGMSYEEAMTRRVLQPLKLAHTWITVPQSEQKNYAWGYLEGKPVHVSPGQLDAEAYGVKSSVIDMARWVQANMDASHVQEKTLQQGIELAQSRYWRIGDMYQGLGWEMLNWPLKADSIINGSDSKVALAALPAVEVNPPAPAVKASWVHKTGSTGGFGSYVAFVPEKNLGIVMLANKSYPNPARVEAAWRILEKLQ

Compound | MIC C. freundii 1982 (D) [2] [µg/mL] | MIC E. coli 1346 (E) (E. coli 1346) | also measured
CO/N=C(\C(=O)N[C@@H]1C(=O)N2C(C(=O)O)=C(CSc3nc(=O)c(=O)[nH]n3C)CS[C@H]12)c1csc(N)n1 [Ceftriaxone, ceftriaxone] |  |  | MIC C. freundii 1982 [1]: 128 µg/mL
O=C(NCc1ccc(O)cc1)OCC1=C(C(=O)O)N2C(=O)[C@H]3NC[C@@H](C1)[C@H]32 [Example 101, (1aS,3aR,6bR)-5-[(4-Hydroxy-benzyl)-carbamoyloxymethyl]-1-oxo-1a,2,3,3a,4,6b-hexahydro-1H-2,6a-diazacyclobut[cd]indene-6-carboxylic acid trifluoroacetate] | 1 | 2 µg/mL | 
CN1CCN(C(=O)OCC2=C(C(=O)O)N3C(=O)[C@H]4NC[C@@H](C2)[C@H]43)CC1 [Example 103, (1aS,3aR,6bR)-5-(4-Methyl-piperazin-1-ylcarbonyloxymethyl)-1-oxo-1a,2,3,3a,4,6b-hexahydro-1H-2,6a-diazacydobut[cd]indene-6-carboxylic acid trifluoroacetate] | 2 | 1 µg/mL | 
(1aS,3aR,6bR)-2-[(R)- and [(S)-1,1-Dioxo-tetrahydrothien-3-ylcarbamoyl]-5-methylsulphonyloxy-1-oxo-1a,2,3,3a,4,6b-hexahydro-1H-2,6a-diazacyclobut[cd]indene-6-carboxylic acid sodium salt [9(g)] |  |  | IC50 (β-lactamase; Table 1, nitrocefin substrate, 15 minutes pre-incubation of β-lactamase with inhibitor, read-out: IC 50): 0.027 µM; MIC C. freundii 1982 ([2]; Table 2): 0.25 µg/mL
(1aS,3aR,6bS)-5-(Carbamoyloxymethyl)-2-(4-hydroxyphenylcarbamoyl)-1-oxo-1,1a,2,3,3a,6b-hexahydro-4-oxa-2,6a-diazacyclobut[cd]indene-6-carboxylic acid sodium salt [31(g)] | 16 | 0,5 μg/ml | IC50 (β-lactamase; Table 4, test C, nitrocefin, 15 minutes pre-incubation, read-out: IC 50 (C)): 51 µM
